One compound from patent US20140329766A1, “Prophylactic Compositions for Management of Microbial Infections in Patients with Brain Injury” (UTI LIMITED PARTNERSHIP, priority 2011, published 2014) can be followed below.

Molecules are shown by their SMILES. “Also recorded” adds a separate entry of the source.

This test relates to post-stroke infections. The test is described as follows: Bacteriological analysis (CFU) of blood, lungs, liver and spleen after MCAO. As to conditions: post-ischemic mice 24 h after MCAO; α-GalCer 2 μg/mouse i.v. 2 h after MCAO (FIGS. 44A-44D). The test is classed as in vivo, mice. As to the method:
Mice underwent the mid-cerebral artery occlusion (MCAO) model of cerebral ischemia-reperfusion injury as previously described (Connolly, Jr. et al., 1996; Wong et al., 2008). Male mice of 8-12 weeks old were anesthetized by intraperitoneal injection of a mixture of 10 mg/kg xylazine hydrochloride (MTC Pharmaceuticals, Cambridge, ON) and 200 mg/kg ketamine hydrochloride (Rogar/STB, London, ON). Body temperature was maintained at 37° C. using a heating pad and temperature regulator with rectal probe. Mice were randomly divided into 2 groups: (i) sham-operated, and (ii) MCAO-operated. All surgical instruments were sterilized before the surgery. Before any incision, the area was swabbed with ethanol. To induce MCAO, a 10-mm incision was made on the right-hand side of the neck. Then, the common carotid artery, external carotid artery, and internal carotid artery were dissected free. The external carotid artery was further dissected distally, then coagulated and cut to serve as a stump. After applying temporary clamps at the common carotid artery and internal carotid artery, a monofilament with a silicon coating diameter of 0.21-0.23 mm (Doccol Corporation, Redlands, Calif., USA) was inserted into the stump of the external carotid artery. The monofilament then advanced a defined distance (12 mm) so that the distal end of the monofilament came to rest across the origin of the MCA. The stump of external carotid artery was tied off. The wound on the neck of the mouse was sutured and the mouse was then transferred onto a heat pad to maintain its body temperature at 37° C. After 30 mins of occlusion, the monofilament was withdrawn to allow reperfusion to occur. The animal then recovered from the anaesthesia. Rehydration of the mice was performed every 4 h with a subcutaneous injection of electrolytes and glucose. Food pellets softened with water were placed in the cage after surgery as the mice recovered, and access to water was provided. Sham-operated animals were subjected to the initial anaesthetic and neck incision only. The animals were then allowed to recover from anaesthetic. All animals were put onto a 37° C. heat pad, post-surgery, to recover from anaesthesia until euthanized.
The anaesthetized mice from Example 1 were washed with 70% ethanol under sterile conditions. Blood was collected by cardiac puncture. The lungs, liver and spleen were removed after thoracotomy and homogenized. For determination of colony forming units (CFU), 10 μl of tissue homogenate or blood was serially diluted, plated onto brain heart infusion (BHI) agar plates supplemented with 5% sheep blood (Daylnn Biologicals, Alberta, Canada), incubated at 37° C. for 18 h, and bacterial colonies were counted.
The anaesthetized mice from Example 7 were washed with 70% ethanol under sterile conditions. Blood was collected by cardiac puncture. The lungs, liver and spleen were removed after thoracotomy and homogenized. For determination of colony forming units (CFU), 10 μl of tissue homogenate or blood was serially diluted, plated onto brain heart infusion (BHI) agar plates supplemented with 5% sheep blood (Daylnn Biologicals, Alberta, Canada), incubated at 37° C. for 18 h, and bacterial colonies were counted.

Consider `CCCCCCCCCCCCCCCCCCCCCCCCCCC(=O)N[C@@H](COC1OC(CO)C(O)C(O)C1O)[C@H](O)[C@H](O)CCCCCCCCCCCCCC` (stereo partly drawn) [α-GalCer, α-galactosylceramide], for which the “infections (bacterial loads in peripheral blood, lungs, livers, spleens)” value is “reduced; also recorded: suppressed the occurrence of microbial infections”.
